In brackets after ≈: the same amount, converted by molar mass. Where two headings read alike, the source gives them in different places.
How the values were obtained:
[1] = in vivo; cited from earlier work
[2] = system: Strep. pneumococci; details: cited from earlier work
[3] = Hydrochlorothiazide 50 mg bio-study, IR versus GRD, urinary drug excretion, urine output and side effects, fasting subjects; assay type: in vivo; details: both sexes, human, oral, HCTZ 50 mg, read-out: Elimination half-life (t1/2) (converted)
Method: Two formulations for hydrochlorothiazide (an immediate release formulation (IR) and a gastric retention device (GRD)) containing sustained release formulations (SR) were administered in the bio-study (bioavailability study). A commercial tablet containing 50 mg of HCTZ was used as an IR control, and spray-coated beads equivalent to 50 mg of HCTZ were formulated for SR in the lab. The process of SR formulation is described above. Bio-study was performed to evaluate the bioavailability as well as pharmacodynamics of HCTZ from a GRD compared to those from an IR.
Monitoring concentrations of hydrochlorothiazide in the urine of healthy adult volunteers allowed comparison of the relative bioavailability of hydrochlorothiazide from the GRD formulation and from a conventional tablet. Participation involved at least two days for each treatment with at least 72-hours washout period between doses. An IR was given once and the GRD was repeated twice to test the reproducibility of the new dosage form, GRD. A 50 mg dose of was chosen for the study because it was in the range of the recommended dose from the PDR (Physician's Desk References) and it produced concentrations high enough to make HPLC analysis efficient. Six subjects participated in the study, 4 healthy males and 2 healthy females. […] The volume of urine collected was measured in order to calculate total amount of drug recovered. […]

## CC1(C)S[C@@H]2[C@H](NC(=O)[C@H](N)c3ccc(O)cc3)C(=O)N2[C@H]1C(=O)O [Amoxicillin]
[1]
  half-life: about 1 hour
[2]
  MIC: 0.02 mg/L (≈ 0.0547 µM)

## NS(=O)(=O)c1cc2c(cc1Cl)NCNS2(=O)=O [hydrochlorothiazide]
[3]
  half-life: ~7 h
